Laboratory results taken from patent US20230416299A1, “COMPOUND AND METHOD FOR THE TREATMENT AND DIAGNOSIS OF NEURODEGENERATIVE CONDITIONS” (Swansea University, priority 2013, published 2023).

Assays:
[1] = target: T1, Lxrα (Homo sapiens, UniProt Q13133); assay: Lxr-responsive luciferase reporter assay (Lxre + Lxrα) in SN4741 neural cells; assay type: cell-based, mouse; conditions: for Lxrα activation, luciferase activity: 10 μM, 24 h
T1 construct: expressed in transfected cells; host or cells: SN4741 mouse neuronal cell line
T1 sequence (Q13133 1-447): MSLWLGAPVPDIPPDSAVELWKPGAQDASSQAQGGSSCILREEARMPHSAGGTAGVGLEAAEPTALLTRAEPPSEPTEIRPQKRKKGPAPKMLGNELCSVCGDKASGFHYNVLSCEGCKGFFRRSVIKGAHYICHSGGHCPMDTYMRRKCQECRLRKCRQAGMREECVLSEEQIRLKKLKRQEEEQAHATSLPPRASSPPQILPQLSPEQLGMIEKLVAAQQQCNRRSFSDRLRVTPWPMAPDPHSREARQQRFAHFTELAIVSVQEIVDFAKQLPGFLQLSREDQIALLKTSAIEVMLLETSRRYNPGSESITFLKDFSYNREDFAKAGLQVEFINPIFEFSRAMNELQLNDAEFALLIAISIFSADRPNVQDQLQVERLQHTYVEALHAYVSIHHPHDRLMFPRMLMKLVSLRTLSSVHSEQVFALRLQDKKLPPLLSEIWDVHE
Excerpt: (§1) Luciferase Reporter Assay.

[2] = target: T2, Lxrβ (Homo sapiens, UniProt P55055); assay: Lxr-responsive luciferase reporter assay (Lxre + Lxrβ) in SN4741 neural cells; assay type: cell-based, mouse; conditions: for Lxrβ activation, luciferase activity: SN4741 cells, 10 μM, 24 h
T2 construct: expressed in transfected cells; host or cells: SN4741 mouse neuronal cell line
T2 sequence (P55055 1-460): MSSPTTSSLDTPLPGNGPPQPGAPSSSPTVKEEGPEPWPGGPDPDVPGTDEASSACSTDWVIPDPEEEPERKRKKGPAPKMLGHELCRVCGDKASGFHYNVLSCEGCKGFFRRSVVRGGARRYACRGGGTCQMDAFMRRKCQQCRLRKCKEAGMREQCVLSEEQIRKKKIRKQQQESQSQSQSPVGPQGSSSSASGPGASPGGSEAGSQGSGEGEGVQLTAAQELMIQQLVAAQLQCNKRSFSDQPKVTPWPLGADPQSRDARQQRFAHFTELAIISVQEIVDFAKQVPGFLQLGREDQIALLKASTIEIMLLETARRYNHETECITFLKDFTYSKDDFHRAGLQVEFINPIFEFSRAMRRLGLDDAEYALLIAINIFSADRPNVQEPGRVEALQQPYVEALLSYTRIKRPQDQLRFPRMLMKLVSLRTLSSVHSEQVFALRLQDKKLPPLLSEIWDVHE
Excerpt: as §1

[3] = target: T3, Lxrβ-LBD (Homo sapiens, UniProt P55055); assay: LanthaScreen TR-FRET Lxrβ coactivator assay; assay type: binding
T3 construct: purchased Invitrogen
T3 sequence (P55055 222-460 limits assumed): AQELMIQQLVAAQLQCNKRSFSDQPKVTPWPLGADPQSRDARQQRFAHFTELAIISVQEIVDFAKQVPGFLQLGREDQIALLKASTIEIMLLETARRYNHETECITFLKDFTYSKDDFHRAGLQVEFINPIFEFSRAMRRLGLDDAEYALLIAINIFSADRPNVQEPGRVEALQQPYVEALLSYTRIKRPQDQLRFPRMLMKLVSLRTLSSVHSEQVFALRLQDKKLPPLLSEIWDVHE
Excerpt: Lxrβ Ligand Binding Assay. For Lxrβ ligand binding activity measurement, the applicants used the LANTHASCREEN™ TR-FRET Lxrβ Coactivator Assay (Invitrogen). The assay uses a terbium (Tb)-labeled anti-GST antibody, a fluorescein-labeled coactivator peptide and the Lxrβ-LBD tagged with glutathione-S-transferase (GST). Binding of the agonist/ligand to Lxrβ-LBD causes a conformational change that result in an increase in the affinity of the Lxrβ for the coactivator peptide. The close proximity of the fluorescently labeled coactivator peptide to the Tb-labeled antibody causes an increase in the TR-FRET signal intensity. The TR-FRET ratio of 520/495 was calculated using a Victor multi label reader with an excitation wavelength of 340 nm and emission wavelengths of 520 nm and 495 nm. The activational capacity of potential ligands was tested in a […] polypropylene plate, following the manufacturer's protocol.

[4] = tested on: Abca1, Abcg1 and Srebf1 transcript levels; assay: Quantitative PCR of Lxr target genes in SN4741 cells; assay type: cell-based, mouse; conditions: SN4741 cells treated 3 h
Protocol: (§2) Quantitative PCR. Total RNA was extracted from SN4741 cells and zebrafish treated with the compounds of interest using the RNeasy Mini Kit (Qiagen), 1 μg was treated with RQ1 RNase-free DNase (Promega) and reverse transcribed using Superscript II Reverse Transcriptase (Invitrogen) and random primers (Invitrogen) (RT+ reaction). Parallel reactions without reverse transcriptase enzyme were done as a control (RT− reaction), and Sybergreen real-time quantitative PCR assays were performed. Expression levels were obtained by normalization with the value of the housekeeping gene encoding actin obtained for every sample in parallel assays.

[5] = tested on: Islet-1:GFP transgenic zebrafish embryos; assay type: in vivo
Protocol: as §2
Zebrafish Strain and Mainrenance Zebrafish were raised on a 14/10 h day/night cycle and were kept at 28.5° C. Islet-1:GFP transgenic embryos were obtained via natural spawning and staged in hours or days post fertilization (hpf and dpf) according to Kimmel et al). Embryos older than 24 hpf were treated with 0.03% phenylthiourea (PTU) to inhibit pigmentation. MO injections were performed using splice site specific zebrafish 1xr MO. MO injected embryos were immediately dechorionated and transferred to a 96 well plate and exposed to dimethyl sulfoxide (DMSO) treated or ligand treated medium.
Compound Exposure. Islet-1:GFP embryos were collected by natural mating and immediately (at 1 cell stage) dechorionated and transferred to a 96 well plate. Each of the compounds tested were obtained as 10 mM stock and diluted in embryo medium to a final concentration of 10 μM, and 200 μL was added to each well. DMSO or propan-2-ol treated embryo medium was taken as control. Ligand solutions were replaced every 12 h with fresh ligand solution prepared in PTU treated embryo medium. Embryos were collected at 48 hpf, fixed for 4 h at room temperature with 4% paraformaldehyde and then washed and kept in PBST. Immunocytochemistry was performed using an anti-GFP antibody and fluorescence was viewed and photographed using a Zeiss Axioplan compound microscope and a Zeiss Axiocam digital camera.

[6] = tested on: mouse E11.5 brain primary cultures; assay: Mouse E11.5 brain primary cultures (Islet1+, active caspase 3+, BrdU, Nkx6.1 counts); assay type: cell-based; conditions: for Number of Islet1+ cells: wild type cultures, 3 DIV; for Number of active caspase-3+ cells: 10 μM 3β,7α-diHCA, 3βH,7O-CA, 25-HC, low concentrations of 3β,7β-diHCA, 3β-HCA
Protocol: Primary Brain Cultures. Brains from E11.5 mice were manually dissected, plated on poly-D-lysine (150,000 cells/cm2) and grown in serum-free N2 media consisting of 1:1 mixture of F12 and DMEM with 10 ng/mL insulin, 100 μg/mL apo-transferrin, 100 μM putrescine, 20 nM progesterone, 30 nM selenium, 6 mg/mL glucose, and 1 mg/mL BSA. Cells were treated for 3 days in vitro (DIV) with the compounds of interest, fixed with 4% PFA and processed for staining using appropriate antibodies.
For BrdU analysis, cells were treated with BrdU one hour after plating and media was replaced with fresh medium after 16 h. After a further 2 days in culture, cells were treated for 30 min with 2N HCl and then immunocytochemistry was performed to evaluate the number of double BrdU+;Islet1+ cells (a measure of motor neuron neurogenesis). Hoechst staining was performed by permeabilizing cells with a 0.3% Triton-X 100/PBS solution for 5 min followed by incubation with Hoechst 33258 (Sigma) for 10 min.
Antibodies and Detection Procedures. Cells were fixed in 4% PFA, washed in PBS and blocked in 5% normal goat serum/PBS for 1 h at room temperature. Primary antibodies were diluted in PBS (pH 7.4), 0.3% Triton X-100, 1% BSA and incubations were carried out overnight at +4° C. or at room temperature for 2 h. The antibodies used were anti-: BrdU (1:400; Abeam), Islet-1 (1:100; Developmental Studies Hybridoma Bank), cleaved caspase-3 (Asp175) (1:100; Cell Signaling Technology), tyrosine hydroxylase (TH;1:1000; Pel-Freeze) GABA (1:1,000; Sigma), Brn3a (1:250; Millipore), Nkx6.1 (1:200; Novus Biologicals), choline acetyltransferase (ChAT; 1:500; Millipore) and appropriate secondary antibodies (Jackson ImmunoResearch or Alexa). Cells positive for the corresponding marker were counted directly at the microscope at a magnification of 20 x. Cells were counted in every well, in eight consecutive fields (going from one side of the well to the other, passing through the center), in three different wells per experiment and in three different experiments per condition. Random pictures of the wells were taken for every condition to document the result, and representative pictures were subsequently selected to represent the quantitative data. Photos were acquired with a Zeiss Axioplan microscope and a Hamamatsu camera C4742-95 using the Openlab software.

[7] = target: T4, Fxr (Homo sapiens, UniProt Q96RI1); assay: Fxr-responsive luciferase reporter assay (Fxre + Fxr) in SN4741 neural cells; assay type: cell-based, mouse; conditions: 24 h
T4 construct: expressed in transfected cells; host or cells: SN4741 mouse neuronal cell line
T4 sequence (Q96RI1 1-486): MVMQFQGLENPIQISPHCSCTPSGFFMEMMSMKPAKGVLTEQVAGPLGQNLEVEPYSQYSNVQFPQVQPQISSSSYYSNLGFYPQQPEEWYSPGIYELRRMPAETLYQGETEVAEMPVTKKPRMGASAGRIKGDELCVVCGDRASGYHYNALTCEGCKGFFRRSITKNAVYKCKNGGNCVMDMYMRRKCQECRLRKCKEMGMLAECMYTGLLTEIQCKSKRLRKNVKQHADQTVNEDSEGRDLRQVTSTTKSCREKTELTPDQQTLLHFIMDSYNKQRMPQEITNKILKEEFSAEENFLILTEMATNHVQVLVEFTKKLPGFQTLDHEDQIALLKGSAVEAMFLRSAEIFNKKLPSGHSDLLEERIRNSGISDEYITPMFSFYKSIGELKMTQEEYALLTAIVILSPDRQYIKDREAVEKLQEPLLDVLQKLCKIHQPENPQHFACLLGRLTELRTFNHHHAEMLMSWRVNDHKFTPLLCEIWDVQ
Protocol: (§3) LC-ESI-MS on the LTQ-Orbitrap LC-ESI-MS and LC-ESI-MSn was performed using an Ultimate 3000 HPLC system (Dionex, Surrey, UK) linked to the ESI source of a LTQ-Orbitrap XL or LTQ-Orbitrap Velos (Thermo Fisher, San Jose, CA) mass spectrometer. Luciferase Reporter Assay. The ability of oxysterols and their acidic metabolites to activate several nuclear receptors i.e. Lxrα and β, Fxr, Vdr, Nurrl was tested in luciferase assays. Transient transfection studies were performed in the mouse neuronal cell line SN4741. This cell line was selected as the oxysterols and acidic metabolites tested were initially identified in CSF. Cells were plated in 24-well plates (5×10^5 cells/well) 24 hr before transfection and transfected with 1 μg of plasmid DNA/well complexed with 2 μL of Lipofectamine 2000 (Invitrogen). Cells were transfected with 400 ng of a Lxr-, Fxr-, Vdr- or Nurrl−responsive luciferase reporter construct, and 200 ng of Lxrα, Lxrβ, Fxr, Vdr or Nurrl. A reporter gene expressing the Renilla luciferase (pRL-TK, Promega) was co-transfected in all experiments as an internal control for normalization of transfection efficiency. After a 12 h incubation, the lipid/DNA mix was replaced with fresh 2.5% serum medium containing vehicle or appropriate ligand (10 μM), as specified in each experiment. […]

[8] = tested on: Nur-related factor 1 (Nurrl)/retinoid X receptor (Rxr) heterodimers; conditions: SN4741 cells, 10 μM
Protocol: as §3

CC(CCC[C@@H](C)[C@H]1CC[C@H]2[C@@H]3[C@@H](O)C=C4C[C@@H](O)CC[C@]4(C)[C@H]3CC[C@]12C)C(=O)O (stereo partly drawn) [3β,7β-diHCA, 3β,7β-dihydroxycholest-5-en-26-oic acid]
Lxrα activation, luciferase activity [1]: have the ability to activate both Lxrs | Lxrβ activation, luciferase activity [2]: have the ability to activate both Lxrs | Lxrβ activational capacity in combination with 22R-HC ([2]; acid 10 μM + 22R-HC 10 μM): No additive effect was observed | Competitor concentration with significant difference (p<0.05) from 10 μM 3β,7α-diHCA alone in TR-FRET Lxrβ coactivator assay ([3]; added to 10 μM 3β,7α-diHCA): ≥ 2 µM | Competition with 3β,7α-diHCA in TR-FRET Lxrβ coactivator assay ([3]; increasing concentrations with 3β,7α-diHCA at its most potent concentration): the effect of 3β,7α-diHCA was reduced to that of the latter acids | Abca1, Abcg1 and Srebf1 transcript levels [4]: induced transcription, but to a lesser extent | Toxicity to zebrafish embryos ([5]; 10 μM in medium): deleterious toxic effect which impaired the survival of the fish | Concentration at which toxicity is initiated (active caspase-3+ cells) ([6]; mouse, E11.5 mouse brain primary cultures, 3 days): 1000 nM | Number of Islet1+ cells [6]: caused the loss of Islet1+ cells in the cultures | Number of active caspase-3+ cells ([6]; wt cultures): increased the number of active caspase-3+ cells

C[C@H](CCC(=O)O)[C@H]1CC[C@H]2[C@@H]3CC=C4C[C@@H](O)CC[C@]4(C)[C@H]3CC[C@]12C [3βH-Δ^5-BA, 3β-hydroxychol-5-en-24-oic acid]
Fxr activation, luciferase activity [7]: also activated Fxr, but was less potent than CDCA

CC1=C(/C=C/C(C)=C\C=C\C(C)=C\C(=O)O)C(C)(C)CCC1 [9-cis-RA, 9-cis-retinoic acid]
Activation of DR5 element luciferase reporter [8]: activated this reporter

C[C@H](CCCC(C)(C)O)[C@H]1CC[C@H]2[C@@H]3CC=C4C[C@@H](O)CC[C@]4(C)[C@H]3CC[C@]12C [25-HC, cholest-5-ene-3β,25-diol]
Lxrα activation, luciferase activity [1]: activate Lxr | Lxr luciferase activity with the Lxr antagonist GGPP ([1]; metabolite 10 μM + GGPP 10 μM): similarly blocked | Lxrβ activation, luciferase activity [2]: activate Lxr | Islet-GFP expression in cranial nerves ([5]; 10 μM, 48 hpf): modest increase in the levels of Islet-1 | Effect on active caspase-3+ cells with GGPP ([6]; GGPP 10 μM, 3β,7β-diHCA, 3β-HCA at 2 μM): GGPP sensitive manner | Effect on Islet1+ cells in cultures from Lxrα−/−β−/− mice ([6]; Lxrα−/−β−/− cultures): blocked in cultures from Lxrα−/−β−/−animals | Number of Islet1+ cells [6]: increase the number of Islet1+ oculomotor cells | Effect on Islet1+ cells with Lxr antagonist GGPP ([6]; wt cultures, GGPP 10 μM): inhibited by the Lxr antagonist GGPP | Number of active caspase-3+ cells ([6]; wt cultures): reduced the number of active caspase-3+ cells
